Measurements from patent US20080153756A1, “Novel Peptides and Methods for the Treatment of Inflammatory Disorders” (Auckland Uniservices Limited, priority 2005, published 2008).
Ends that are not written are not given here.

What was measured:
[1] = system: adhesion of Mn++-activated TK-1 cells (α4+ β7+ β1−) to VCAM-1; assay: Cell adhesion assay: Mn2+-activated TK-1 cells to VCAM-1-Fc coated wells; assay type: cell-based, mouse; details: for maximal inhibition of adhesion to VCAM-1 / inhibition of cell adhesion to VCAM-1: Mn++-activated TK-1 cells; for inhibition of cell adhesion to VCAM-1: highest concentration tested, 50 μM
Procedure: The soluble VCAM-1-Fc chimera was produced using the glutamine synthetase gene amplification system. The extracellular portions of human VCAM-1 fused to the Fc domain of human IgG1 was expressed from the pEE14 vector (kindly provided by Dr Chris Bebbington, Celltech Ltd, UK) in CHO K1 cells as described previously (27).
(§1) Lab-Tek 16-well glass slides (Nunc) or flat-bottom 96-well plates (Nunc Maxisorp) were coated overnight at 4° C. with purified VCAM-1-Fc at 10 μg/well in 100 μl of 0.1 M carbonate buffer (pH 9.5). After washing plates were blocked with 100% heat-inactivated FCS, and washed with Hanks balanced salt solution (HBSS) containing 10 mM Hepes, 2 mM Ca^2+ and 2 mM Mn^2+. TK-1 cells were either left unlabeled or labeled with the fluorescent dye chloromethyl fluorescein diacetate (CMFDA; Molecular Probes, Oreg.). For peptide inhibition studies, TK-1 cells were preincubated with peptide in serum-free medium for 30 min at 37° C. and activated by suspension in an Mn^2+-containing buffer (HBSS: 10 mM Hepes containing 2 mM Ca^2+, 2 mM Mn^2+, and 2% FCS). Human IgG1 Ab (10 μg/ml; Sigma) was added to prevent nonspecific capture of cells to the Fc portion of […]. Cells were checked for viability by trypan blue exclusion, added to wells (10^6 cells/well), and incubated for 30 min at 37° C. in a humidified atmosphere of 5% CO2. Non-adherent cells were removed by inverse centrifugation of the plates at 70×g for 5 min followed by gentle pipette washing. The number of unlabeled adherent cells was determined by counting the number of adherent cells in four independent fields at 100× magnification under an inverted microscope. The fluorescence of CMFDA-labeled adherent cells was measured using a VICTOR 1420 multilabel counter (Wallac). Representative data are reported as mean±SD of two independent experiments performed in duplicate. Antibodies against the integrin β7 subunit (Fib504 mAb), and α4β7 complex (DATK32 mAb) were included as positive controls, and added (1:100 dilution of ascites) to cells 20 min prior to the adhesion assay.

[2] = system: adhesion of TK-1 (α4β7+ α4β1−) cells to MAdCAM-1; assay: Cell adhesion assay: TK-1 cells to MAdCAM-1-Fc coated plates; assay type: cell-based, mouse; details: PMA-activated TK-1 cells, peptide up to 50 μM
[3] = system: TK-1 cells; assay: Cell viability of peptide-treated TK-1 cells (trypan blue exclusion); assay type: cell-based, mouse; details: data not shown
Procedure: as §1, with “Non-adherent cells were removed by inverse centrifugation of the plates at 70×g for 5 min followed by gentle pipette washing.” left out, “Representative data are reported as mean±SD of two independent experiments performed in duplicate. Antibodies against the integrin β7 subunit (Fib504 mAb), and α4β7 complex (DATK32 mAb) were included as positive controls, and added (1:100 dilution of ascites) to cells 20 min prior to the adhesion assay.” left out

[4] = target: T1, soluble VCAM-1-Fc chimera (extracellular portions of human VCAM-1 fused to the Fc domain of human IgG1) (human, UniProt P19320 25-698); assay: cell-based or functional assay
T1 sequence (looked up): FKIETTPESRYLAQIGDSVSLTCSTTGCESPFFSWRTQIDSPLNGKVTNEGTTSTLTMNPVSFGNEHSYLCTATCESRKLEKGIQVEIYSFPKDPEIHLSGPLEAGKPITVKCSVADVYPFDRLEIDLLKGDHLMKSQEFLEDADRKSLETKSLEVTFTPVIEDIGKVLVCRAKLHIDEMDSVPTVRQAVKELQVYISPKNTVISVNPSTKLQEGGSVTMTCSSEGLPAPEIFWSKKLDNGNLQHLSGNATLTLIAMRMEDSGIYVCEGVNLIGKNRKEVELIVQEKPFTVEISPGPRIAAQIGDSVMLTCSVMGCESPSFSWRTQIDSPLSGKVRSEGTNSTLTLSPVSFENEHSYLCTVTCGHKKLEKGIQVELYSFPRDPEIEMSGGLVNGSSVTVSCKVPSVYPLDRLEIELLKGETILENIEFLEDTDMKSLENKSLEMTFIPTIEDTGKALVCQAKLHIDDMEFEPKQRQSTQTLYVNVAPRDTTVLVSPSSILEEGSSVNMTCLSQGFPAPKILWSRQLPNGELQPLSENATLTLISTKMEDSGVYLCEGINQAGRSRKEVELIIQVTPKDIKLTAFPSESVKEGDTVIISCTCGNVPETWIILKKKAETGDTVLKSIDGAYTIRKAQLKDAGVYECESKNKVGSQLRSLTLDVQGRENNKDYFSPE

CC[C@H](C)[C@H](NC(=O)[C@H](Cc1ccc(O)cc1)NC(=O)[C@H](CO)NC(=O)[C@H](Cc1c[nH]c2ccccc12)NC(=O)[C@H](CO)NC(=O)[C@H](CC(=O)O)NC(=O)[C@H](CCCCN)NC(=O)[C@H](CCCCN)NC(=O)[C@H](Cc1c[nH]c2ccccc12)NC(=O)[C@H](CCCCN)NC(=O)[C@H](CCSC)NC(=O)[C@H](CCCNC(=N)N)NC(=O)[C@H](CCCNC(=N)N)NC(=O)[C@H](CC(N)=O)NC(=O)[C@H](CCC(N)=O)NC(=O)[C@H](Cc1ccccc1)NC(=O)[C@H](Cc1c[nH]c2ccccc12)NC(=O)[C@@H](NC(=O)[C@H](CCCCN)NC(=O)[C@@H](NC(=O)[C@H](CCC(N)=O)NC(=O)[C@@H](N)CCCNC(=N)N)[C@@H](C)CC)[C@@H](C)CC)C(=O)N[C@@H](CC(N)=O)C(=O)N[C@@H](CO)C(=O)N[C@@H](CCCCN)C(=O)N[C@@H](CO)C(=O)N[C@@H](CC(N)=O)C(=O)N[C@@H](CC(=O)O)C(=O)N[C@@H](CC(=O)O)C(=O)O [Pen-DSWSYINSKSNDD, DSWSYINSKSNDD] was tested, and the “inhibition of T cell adhesion to VCAM-1 (in words)” value ([1]; Mn2+-activated TK-1 cells, FIG. 2A) was “active” and the “maximal inhibition of adhesion to VCAM-1” value ([1]; at 30 μM) was 72%.

With DSWS the “inhibition of PMA-induced T cell adhesion to MAdCAM-1 (in words)” value [2] was “inactive”.

For DSWSY [r9-DSWSY], the “inhibition of cell adhesion to VCAM-1” value [1] was 75%.

“DSWSYINS (not fully specified (N-terminus); also: N-terminal carrier biotinylated penetratin or r9, not given here for this peptide; listed as Homo sapiens) [r9-DSWSYINS]” was tested, and the cells killed ([3]; 50 μM peptide) was 15% and the “maximal inhibition of adhesion to VCAM-1” value ([1]; at 6 μM peptide) was ~67%.

“KSNDD ({biotinylated r9}-KSNDD; listed as Homo sapiens) [r9-KSNDD]” was tested, and the “inhibition of cell adhesion to VCAM-1” value [1] was 27%.

QYKSILQEENRRD [Pen-QYKSILQEENRRD] was tested, and the “inhibition of cell adhesion to VCAM-1” value [1] was 14%.

In the case of SWSY (listed as Homo sapiens), the “inhibition of PMA-induced T cell adhesion to MAdCAM-1 (in words)” value [2] is reported as “retained the ability of the parent peptide DSWSY to inhibit T cell adhesion”.

In the case of “YINSK ({biotinylated r9}-YINSK; listed as Homo sapiens) [r9-YINSK]”, the “inhibition of cell adhesion to VCAM-1” value [1] is reported as 80%.

With “YINSKSNDD (not fully specified (N-terminus); also: N-terminal carrier biotinylated penetratin or r9, not given here for this peptide; listed as Homo sapiens) [r9-YINSKSNDD]” the “effect on cell viability (in words)” value [3] was “no effect” and the “maximal inhibition of adhesion to VCAM-1” value ([1]; at 6 μM peptide) was ~67%.

B1: integrin α4β7 on mouse TK-1 T lymphoma cells (α4β7+ α4β1-) (receptor)
chain 1: YNLDPENALLYQGPSGTLFGYSVVLHSHGSKRWLIVGAPTASWLSNASVVNPGAIYRCGIRKNPNQTCEQLQSGSPSGEPCGKTCLEERDNQWLGVTLSRQPGENGSIVTCGHRWKNIFYMKSDNKLPTGICYVMPSDLRTELSKRMAPCYKDYTRKFGENFASCQAGISSFYTQDLIVMGAPGSSYWTGTVFVYNITTNQYKAFVDRQNQVKFGSYLGYSVGAGHFRSPHTTEVVGGAPQHEQIGKAYIFSIDENELNIVYEMKGKKLGSYFGASVCAVDLNADGFSDLLVGAPMQSTIREEGRVFVYINSGMGAVMVEMERVLVGSDKYAARFGESIANLGDIDNDGFEDIAIGAPQEDDLRGAVYIYNGRVDGISSTYSQRIEGQQISKSLRMFGQSISGQIDADNNGYVDVAVGAFQSDSAVLLRTRPVVIVEASLSHPESVNRTKFDCTENGLPSVCMHLTLCFSYKGKEVPGYIVLFYNVSLDVHRKAESPSRFYFFSNGTSDVITGSIRVSSSGEKCRTHQAFMRKDVRDILTPIHVEATYHLGHHVITKRNTEEFPPLQPILQQKKEKDVIRKMINFARFCAYENCSADLQVSAKVGFLKPYENKTYLAVGSMKTIMLNVSLFNAGDDAYETTLNVQLPTGLYFIKILDLEEKQINCEVTESSGIVKLACSLGYIYVDRLSRIDISFLLDVSSLSRAHEDLSISVHASCENEGELDQVRDNRVTLTIPLRYEVMLTVHGLVNPTSFVYGSSEENEPETCMAEKLNLTFHVINTGISMAPNVSVKIMVPNSFLPQDDKLFNVLDVQTTTGQCHFKHYGRECTFAQQKGIAGTLTDIVKFLSKTDKRLLYCMKADQHCLDFLCNFGKMESGKEASVHIQLEGRPSILEMDETSSLKFEIKATAFPEPHPKVIELNKDENVAHVFLEGLHHQRPKRHFTIIIITISLLLGLIVLLLISCVMWKAGFFKRQYKSILQEENRRDSWSYVNSKSNDD
chain 2: ELDTKITSSGEAAEWEDPDLSLQGSCQPVPSCQKCILSHPSCAWCKQLNFTASGEAEARRCARREELLARGCPAQELEEPRGRQEVLQDKPLSQGDRGEGATQLAPQRIRVTLRPGEPQKFRVRFLRAAGYPVDLYYLMDLSYSMKDDLERVRQLGHALLVRLQEVTHSVRIGFGSFVDKTVLPFVSTVPSKLHHPCPSRLERCQPPFSFHHVLSLTGDAQAFEREVGRQNVSGNLDSPEGGFDAILQAALCQEQIGWRNVSRLLVFTSDDTFHTAGDGKLGGIFMPSDGRCHLDSNGVYTNSAEFDYPSVGQVAQALTAANIQPIFAVTGATLPVYQELRQLIPKSAVGELSEDSSNVVQLIMDAYDSLSSTVTLEHSPLPPGVSISFESHCKGPEKTEGEAGDRGQCNDVRVNQTVDFWVTLQATHCLPEAHVLRLWALGFSEELTVELHTVCDCNCGDAQPHAPYCSDGQGDLQCGICSCAPGRLGQLCECSEADLSSPDLESGCRAPNGTGPLCSGKGRCQCGRCSCSGQSSGRLCECDDASCERHEGILCGGFGHCQCGVCHCHANHTGRACECSKSVDSCVSPEGGLCSGHGYCKCNRCQCLDGYYGALCDQCLGCKSPCEQYRDCAECGAFGTGPLAANCSVVCADVNVTLTLAPNLDDGWCKERTIDNQLFFFLVEHAASGIVLRVRPQEKGVDHTRAIILGCTGGIVAVGLGLVLAYRLSVEIYDRREYRRFEKEQQQLNWKQDNNPLYKSAITTTVNPRFQGTNGRSPSLSLTREAD
B1 was tested, and the “IC50 of the cell-permeable peptide Pen-… for inhibition of adhesion of Mn++-activated TK-1 cells to VCAM-1” value [4] was 20 µM.
